Measurements from article PMC2743475 (Bioorganic & medicinal chemistry, 2009).

Tests used:
[1] = tested on: PC-3M prostate cancer cells; settings: PC-3M cells, spheroid disaggregation; cited from earlier work
[2] = tested on: PC-3M prostate cancer cells; settings: PC-3M cells, MTT; cited from earlier work
[3] = tested on: PC-3M prostate cancer cells; settings: mice; cited from earlier work
Recombinant GSK-3β = Recombinant GSK-3β (Homo sapiens, UniProt P49841); assay: in vitro GSK-3β inhibitory assay using Tau [pS396] phosphoELISA kit
Sequence of Recombinant GSK-3β (P49841 whole entry): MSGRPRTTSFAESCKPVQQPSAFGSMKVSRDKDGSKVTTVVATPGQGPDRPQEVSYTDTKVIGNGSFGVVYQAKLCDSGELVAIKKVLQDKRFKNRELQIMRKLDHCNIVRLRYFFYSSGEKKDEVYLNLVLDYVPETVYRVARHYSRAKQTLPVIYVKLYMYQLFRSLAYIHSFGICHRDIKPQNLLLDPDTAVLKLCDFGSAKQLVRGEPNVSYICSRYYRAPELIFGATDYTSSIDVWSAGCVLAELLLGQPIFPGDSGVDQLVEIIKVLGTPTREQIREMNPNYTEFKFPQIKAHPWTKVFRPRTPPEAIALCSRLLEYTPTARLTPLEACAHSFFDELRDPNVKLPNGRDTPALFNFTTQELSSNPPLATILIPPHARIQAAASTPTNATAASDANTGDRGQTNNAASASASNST

[4] = in vivo, up to 200 mg/kg; cited from earlier work
prostate cancer cells = settings: even at 200 µM in vitro; cited from earlier work

SMILES | in vitro anti-invasive properties / invasion [1] | in vitro anti-growth / proliferation [2] | cytotoxic effects at the test doses [3] | formation of tumor micrometastases in distant organs [3] | orthotopic tumor growth [3] | IC50 (Recombinant GSK-3β) | CNS-depressant effects [4] | cytotoxicity (prostate cancer cells)
CCSc1ccc(/C=C2\NC(=O)NC2=O)cc1 [Compound 2, (Z)-5-(4-(ethylthio)benzylidene)-hydantoin] | potent | potent | without apparent cytotoxic effects | inhibited | decreased | – | – | –
O=C1NC(=O)/C(=C/c2ccc(O)cc2)N1 [Compound 1, (Z)-5-(4-hydroxybenzylidene)-hydantoin] | potent | potent | without apparent cytotoxic effects | inhibited | decreased | – | – | –
COc1cccc(/C=C2\NC(=O)NC2=O)c1 [Compound 4] | – | – | – | – | – | 14.1 ± 1.9 µM | – | –
CCN(CC)c1ccc(/C=C2\NC(=O)NC2=O)cc1 [Compound 3] | – | – | – | – | – | – | did not show CNS-depressant effects | lack of cytotoxicity
